Source: patent US9878046B2, “Adverse side-effects associated with administration of an anti-hyaluronan agent and methods for ameliorating or preventing the side-effects” (Halozyme, Inc., priority 2010, dated 2018)

Columns and labels:
[1] = test system: PC3 prostate carcinoma cell line; experiment: Antitumor activity in PC3 prostate cancer xenograft model; assay type: in vivo, human (xenograft in athymic male nude mice)
Method: Tumor cells from the PC3 prostate carcinoma cell line were grown to approximately 80% confluency then trypsinized, collected, washed once in HBSS (Hank's balance salt solution, Mediatech Inc.), then re-suspended in 50% Matrigel® in HBSS at 2×10^7 cells/mL on ice before inoculation into animals. Athymic male nude mice (Nu/Nu (Ncr); Taconic Farms; average weight ˜20 g) were inoculated intramuscularly (IM) with 0.05 mL of this cell suspension, peritibially, in the left hind leg (adjacent to the tibia periosteum). The implants in the animals were assessed twice a week and allowed to grow to a mean tumor volume of approximately 500 mm^3 (Day −2; Table 12). Actual tumor volumes were determined using VisualSonics Vevo 770 high-resolution ultrasound, using two perpendicular axial dimensions.
Animals were sorted randomly and grouped into 6 groups of 8 mice per group (6+2 satellite mice). Treatment groups were vehicle (API buffer), PEGPH20 (157,500 Units/kg, 4.5 mg/kg), low dose dexamethasone (1.25 mg/kg), high dose dexamethasone (5 mg/kg), PEGPH20 (4.5 mg/kg)+low dose dexamethasone (1.25 mg/kg) and PEGPH20 (4.5 mg/kg)+high dose dexamethasone (5 mg/kg). The dose and frequency of the PEGPH20 (or vehicle) intravenous injections was 157,500 Units/kg or approximately 4.5 mg/kg, every 3rd day starting on Day 0 (Days 0, 3, 6, 9, 12) with a total of 5 injections (Q3Dx5) with a dose volume of 0.1 mL. This dosing and frequency regimen was previously shown to inhibit xenograft tumor growth by 34-70%. The doses and frequency of the dexamethasone intraperitonal injections were 1.25 mg/kg at the low dose and 5 mg/kg at the high dose, once a day until Day 13 (QDx13) with a dose volume of 0.1 mL.
The tumor volumes of all mice were measured pre-treatment on Day −2 (average tumor volume of ˜500 mm^3) and on Day 1, 6, 9, 13, 16 and 20 by capturing images using the VisualSonic ultrasound system and using an ultrasound imaging software program to calculate tumor volume (Table 12).

[2] = test system: BxPC3 pancreatic cancer cell line; experiment: Antitumor activity in BxPC3 pancreatic cancer xenograft model; assay type: in vivo, human (xenograft in athymic female nude mice)
Method: Tumor cells from the BxPC3 pancreatic cancer cell line were grown to approximately 80% confluency, trypsinized, collected, washed once in HBSS (Hank's balance salt solution, Mediatech Inc.), and re-suspended in 50% Matrigel in HBSS at 2×10^7 cells/mL on ice before inoculation into animals. Athymic female nude mice (average weight ˜20 g) were inoculated intramuscularly (IM) with 0.05 mL of cell suspension, peritibially, in the left hind leg (adjacent to the tibia periosteum). The tumors in the animals were assessed twice a week and allowed to grow to a mean tumor volume of approximately 250 mm^3 (Day −1; Table 13). Actual tumor volumes were determined using VisualSonics Vevo 770 high-resolution ultrasound.
The animals were randomly grouped into 6 groups of 8 animals per group (6+2 satellite mice) and treated with vehicle (API buffer), PEGPH20 (157,500 Units/kg, 4.5 mg/kg), low dose dexamethasone (1.25 mg/kg), high dose dexamethasone (5 mg/kg), PEGPH20 (4.5 mg/kg)+low dose dexamethasone (1.25 mg/kg) and PEGPH20 (4.5 mg/kg)+high dose dexamethasone (5 mg/kg). The dose and frequency of the PEGPH20 (or vehicle) intravenous injections was 157,500 Units/kg or approximately 4.5 mg/kg, on Days 0, 3, 7, 10, 13 and 17 for a total of 6 injections starting on Day 0 (dose volume of 0.1 mL). The doses and frequency of the dexamethasone intraperitonal injections was 1.25 mg/kg at the low dose and 5 mg/kg at the high dose, once a day until Day 17 (QDx17) with a dose volume of 0.1 mL.
The tumor volumes of all mice were measured pre-treatment on Days −4 and −1 (mean tumor volume of ˜250 mm^3) and on Days 4, 7, 11, 14 and 17 by capturing images using the VisualSonic ultrasound system and using an ultrasound imaging software program to calculate the tumor volume (Table 13). The percent tumor growth inhibition (% TGI) was calculated as described above in Example 9A.

## C[C@@H]1C[C@H]2[C@@H]3CCC4=CC(=O)C=C[C@]4(C)[C@@]3(F)[C@@H](O)C[C@]2(C)[C@@]1(O)C(=O)CO [Dexamethasone]
[1]; Day 1, PEGPH20 4.5 mg/kg IV Q3Dx5 and/or dexamethasone 1.25 mg/kg IP QDx13
  Tumor volume: 636.98 mm^3
[1]; Day 1, dexamethasone 5 mg/kg IP QDx13, alone or + PEGPH20 4.5 mg/kg IV Q3Dx5
  Tumor volume: 633.84 mm^3
[1]; Day 6, PEGPH20 4.5 mg/kg IV Q3Dx5 and/or dexamethasone 1.25 mg/kg IP QDx13
  Tumor volume: 727.80 mm^3
[1]; Day 6, dexamethasone 5 mg/kg IP QDx13, alone or + PEGPH20 4.5 mg/kg IV Q3Dx5
  Tumor volume: 854.90 mm^3
[1]; Day 9, PEGPH20 4.5 mg/kg IV Q3Dx5 and/or dexamethasone 1.25 mg/kg IP QDx13
  Tumor volume: 964.35 mm^3
[1]; Day 9, dexamethasone 5 mg/kg IP QDx13, alone or + PEGPH20 4.5 mg/kg IV Q3Dx5
  Tumor volume: 995.47 mm^3
[1]; Day 13, PEGPH20 4.5 mg/kg IV Q3Dx5 and/or dexamethasone 1.25 mg/kg IP QDx13
  Tumor volume: 1202.35 mm^3
[1]; Day 13, dexamethasone 5 mg/kg IP QDx13, alone or + PEGPH20 4.5 mg/kg IV Q3Dx5
  Tumor volume: 1211.50 mm^3
[1]; Day 16, PEGPH20 4.5 mg/kg IV Q3Dx5 and/or dexamethasone 1.25 mg/kg IP QDx13
  Tumor volume: 1401.91 mm^3
[1]; Day 16, dexamethasone 5 mg/kg IP QDx13, alone or + PEGPH20 4.5 mg/kg IV Q3Dx5
  Tumor volume: 1455.27 mm^3
[1]; Day 20, PEGPH20 4.5 mg/kg IV Q3Dx5 and/or dexamethasone 1.25 mg/kg IP QDx13
  Tumor volume: 1792.92 mm^3
[1]; Day 20, dexamethasone 5 mg/kg IP QDx13, alone or + PEGPH20 4.5 mg/kg IV Q3Dx5
  Tumor volume: 1840.11 mm^3
[1]; Day −2 (pre-treatment), PEGPH20 4.5 mg/kg IV Q3Dx5 and/or dexamethasone 1.25 mg/kg IP QDx13
  Tumor volume: 486.88 mm^3
[1]; Day −2 (pre-treatment), dexamethasone 5 mg/kg IP QDx13, alone or + PEGPH20 4.5 mg/kg IV Q3Dx5
  Tumor volume: 516.25 mm^3
[2]; Day 4, PEGPH20 4.5 mg/kg IV x6 and/or dexamethasone 1.25 mg/kg IP QDx17
  Tumor volume: 463.51 mm^3
[2]; Day 4, dexamethasone 5 mg/kg IP QDx17, alone or + PEGPH20 4.5 mg/kg IV x6
  Tumor volume: 396.26 mm^3
[2]; Day 7, PEGPH20 4.5 mg/kg IV x6 and/or dexamethasone 1.25 mg/kg IP QDx17
  Tumor volume: 609.40 mm^3
[2]; Day 7, dexamethasone 5 mg/kg IP QDx17, alone or + PEGPH20 4.5 mg/kg IV x6
  Tumor volume: 379.39 mm^3
[2]; Day 7, dexamethasone 5 mg/kg alone or + PEGPH20 4.5 mg/kg
  % TGI (% Tumor Growth Inhibition): 53%
[2]; Day 11, PEGPH20 4.5 mg/kg IV x6 and/or dexamethasone 1.25 mg/kg IP QDx17
  Tumor volume: 732.92 mm^3
[2]; Day 11, dexamethasone 5 mg/kg IP QDx17, alone or + PEGPH20 4.5 mg/kg IV x6
  Tumor volume: 481.54 mm^3
[2]; Day 11, dexamethasone 5 mg/kg alone or + PEGPH20 4.5 mg/kg
  % TGI (% Tumor Growth Inhibition): 49%
[2]; Day 14, PEGPH20 4.5 mg/kg IV x6 and/or dexamethasone 1.25 mg/kg IP QDx17
  Tumor volume: 796.84 mm^3
[2]; Day 14, dexamethasone 5 mg/kg IP QDx17, alone or + PEGPH20 4.5 mg/kg IV x6
  Tumor volume: 603.82 mm^3
[2]; Day 14, dexamethasone 5 mg/kg alone or + PEGPH20 4.5 mg/kg
  % TGI (% Tumor Growth Inhibition): 46%
[2]; Day 17, PEGPH20 4.5 mg/kg IV x6 and/or dexamethasone 1.25 mg/kg IP QDx17
  Tumor volume: 933.86 mm^3
[2]; Day 17, dexamethasone 5 mg/kg IP QDx17, alone or + PEGPH20 4.5 mg/kg IV x6
  Tumor volume: 720.95 mm^3
[2]; Day 17, dexamethasone 5 mg/kg alone or + PEGPH20 4.5 mg/kg
  % TGI (% Tumor Growth Inhibition): 50%
[2]; Day −1 (pre-treatment), PEGPH20 4.5 mg/kg IV x6 and/or dexamethasone 1.25 mg/kg IP QDx17
  Tumor volume: 312.65 mm^3
[2]; Day −1 (pre-treatment), dexamethasone 5 mg/kg IP QDx17, alone or + PEGPH20 4.5 mg/kg IV x6
  Tumor volume: 231.18 mm^3
[2]; Day −4 (pre-treatment), PEGPH20 4.5 mg/kg IV x6 and/or dexamethasone 1.25 mg/kg IP QDx17
  Tumor volume: 202.85 mm^3
[2]; Day −4 (pre-treatment), dexamethasone 5 mg/kg IP QDx17, alone or + PEGPH20 4.5 mg/kg IV x6
  Tumor volume: 197.29 mm^3
